According to PubChem BioAssay AID248 (DTP/NCI, 2004):
Where “and” joins values, the source holds several entries; their conditions need not be identical. Equal values may be shown once. Inconclusive results and toxic doses are left out. No stated cut-off is given here; in the data, active means T/C of 150% or more; inactive means T/C below 125%.

Tested on: L1210 leukemia ip in BDF1 mice, survival T/C
Experiment: NCI In Vivo Anticancer Drug Screen. Data for tumor model L1210 Leukemia (intraperitoneal) in B6D2F1 (BDF1) mice
Conditions: endpoint: mean survival time, higher = longer survival
How it was run: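 Mice bearing the transplanted tumor received compound or vehicle. Survival of the treated group was divided by that of the vehicle-treated control group to give the ratio.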

[1] = dose: 100.0 mg/kg/injection, schedule: Q01DX001 (ip), vehicle: saline
[2] = dose: 200.0 mg/kg/injection, schedule: Q01DX001 (ip), vehicle: saline
[3] = dose: 400.0 mg/kg/injection, schedule: Q01DX001 (ip), vehicle: saline
[4] = dose: 100.0 mg/kg/injection, schedule: Q01DX001 (ip), vehicle: Klucel (hydroxypropylcellulose) (HPC)
[5] = dose: 100.0 mg/kg/injection, schedule: Q04DX003 (ip), vehicle: Klucel (hydroxypropylcellulose) (HPC)
[6] = dose: 200.0 mg/kg/injection, schedule: Q01DX001 (ip), vehicle: Klucel (hydroxypropylcellulose) (HPC)
[7] = dose: 200.0 mg/kg/injection, schedule: Q04DX003 (ip), vehicle: Klucel (hydroxypropylcellulose) (HPC)
[8] = dose: 400.0 mg/kg/injection, schedule: Q04DX003 (ip), vehicle: Klucel (hydroxypropylcellulose) (HPC)
[9] = dose: 100.0 mg/kg/injection, schedule: Q01DX001 (ip), vehicle: other
[10] = dose: 200.0 mg/kg/injection, schedule: Q01DX001 (ip), vehicle: other
[11] = dose: 400.0 mg/kg/injection, schedule: Q01DX001 (ip), vehicle: other
[12] = dose: 100.0 mg/kg/injection, schedule: Q04DX003 (ip), vehicle: saline with Tween-80
[13] = dose: 200.0 mg/kg/injection, schedule: Q04DX003 (ip), vehicle: saline with Tween-80
[14] = dose: 400.0 mg/kg/injection, schedule: Q04DX003 (ip), vehicle: saline with Tween-80
[15] = dose: 100.0 mg/kg/injection, schedule: Q01DX001 (ip), vehicle: carboxymethylcellulose (CMC)
[16] = dose: 200.0 mg/kg/injection, schedule: Q01DX001 (ip), vehicle: carboxymethylcellulose (CMC)
[17] = dose: 400.0 mg/kg/injection, schedule: Q01DX001 (ip), vehicle: carboxymethylcellulose (CMC)
[18] = dose: 50.0 mg/kg/injection, schedule: Q01DX009 (ip), vehicle: saline
[19] = dose: 100.0 mg/kg/injection, schedule: Q04DX003 (ip), vehicle: saline
[20] = dose: 200.0 mg/kg/injection, schedule: Q04DX003 (ip), vehicle: saline
[21] = dose: 50.0 mg/kg/injection, schedule: Q01DX009 (ip), vehicle: Klucel (hydroxypropylcellulose) (HPC)
[22] = dose: 100.0 mg/kg/injection, schedule: Q01DX009 (ip), vehicle: Klucel (hydroxypropylcellulose) (HPC)
[23] = dose: 200.0 mg/kg/injection, schedule: Q01DX009 (ip), vehicle: Klucel (hydroxypropylcellulose) (HPC)
[24] = dose: 100.0 mg/kg/injection, schedule: Q04DX002 (ip), vehicle: Klucel (hydroxypropylcellulose) (HPC)
[25] = dose: 6.0 mg/kg/injection, schedule: Q01DX009 (ip), vehicle: saline

Measured: T/C

O=C(COc1ccc([N+](=O)[O-])cc1)Nc1ccc(S(=O)(=O)F)cc1
inactive: [1] 103 % of control | [2] 107 % of control | [3] 103 % of control

O=C(COc1cc(Cl)c(Cl)cc1Cl)Nc1ccccc1
inactive: dose: 100.0 mg/kg/injection, schedule: Q04DX002 (ip), vehicle: saline 92 % of control | dose: 200.0 mg/kg/injection, schedule: Q04DX002 (ip), vehicle: saline 100 % of control | dose: 400.0 mg/kg/injection, schedule: Q04DX002 (ip), vehicle: saline 103 % of control

COc1ccc(Nc2ccc(O)c3c2C(=O)c2ccccc2C3=O)c(Br)c1
inactive: [1] 101 % of control | [2] 95 % of control | [3] 97 % of control

CCN(CC)CCNc1nc2ccc(C(=O)O)cc2s1
inactive: dose: 75.0 mg/kg/injection, schedule: Q01DX001 (ip), vehicle: saline 100 % of control | dose: 150.0 mg/kg/injection, schedule: Q01DX001 (ip), vehicle: saline 98 % of control | dose: 300.0 mg/kg/injection, schedule: Q01DX001 (ip), vehicle: saline 94 % of control

CN(C)CCNCC(=O)CC(O)(C(F)(F)F)C(F)(F)F
inactive: [4] 96 % of control | [5] 108 % of control | [6] 109 % of control | [7] 97 % of control | dose: 400.0 mg/kg/injection, schedule: Q01DX001 (ip), vehicle: Klucel (hydroxypropylcellulose) (HPC) 104 % of control | [8] 113 % of control

CCCCCCN(CCCCCC)[N+](=O)[O-]
inactive: [9] 96 % of control | [10] 100 % of control | [11] 96 % of control

CC(C)(C)c1ccc(OC(=S)Nc2ccccc2)cc1
inactive: [12] 111 % of control | [13] 111 % of control | [14] 103 % of control

Cc1ccc(NC(=O)NCCBr)cc1
inactive: dose: 50.0 mg/kg/injection, schedule: Q01DX001 (ip), vehicle: carboxymethylcellulose (CMC) 101 % of control | [15] 101 % of control | [16] 106 % of control | [17] 98 % of control

CCNC1(c2ccc(Cl)cc2)CCCCC1=O (stereo not given)
inactive: [18] 105 % of control | dose: 100.0 mg/kg/injection, schedule: Q01DX009 (ip), vehicle: saline 102 % of control | [19] 104 % of control | [20] 106 % of control

O=C(CBr)N1CCC2(CC1)SSC1(CCN(C(=O)CBr)CC1)S2
inactive: dose: 50.0 mg/kg/injection, schedule: Q01DX009 (ip), vehicle: saline with Tween-80 96 % of control | dose: 100.0 mg/kg/injection, schedule: Q01DX009 (ip), vehicle: saline with Tween-80 91 % of control | [12] 102 % of control | [13] 105 % of control

COc1ccc(CCCCC(=O)O)cc1O
inactive: [1] 103 % of control | [2] 103 % of control | [3] 107 % of control

CCCCCCCCC(=O)N1CC1
inactive: [21] 94 % of control | dose: 50.0 mg/kg/injection, schedule: Q04DX003 (ip), vehicle: Klucel (hydroxypropylcellulose) (HPC) 105 % of control | [22] 94 % of control | [5] 96 % of control | [23] 96 % of control | [7] 98 % of control

O=C1c2ccccc2C(=O)c2c(NCCN3CCOCC3)ccc(NCCN3CCOCC3)c21
inactive: dose: 87.5 mg/kg/injection, schedule: Q01DX009 (ip), vehicle: Klucel (hydroxypropylcellulose) (HPC) 96 % of control | dose: 175.0 mg/kg/injection, schedule: Q01DX009 (ip), vehicle: Klucel (hydroxypropylcellulose) (HPC) 102 % of control | dose: 350.0 mg/kg/injection, schedule: Q01DX009 (ip), vehicle: Klucel (hydroxypropylcellulose) (HPC) 107 % of control

N#CCCNC(=O)Nc1cccc2ccccc12
inactive: [15] 96 % of control | [16] 100 % of control | [17] 96 % of control

NS(=O)(=O)c1ccc(CNC(=O)c2ccc(C(=O)NCc3ccc(S(N)(=O)=O)cc3)cc2)cc1
inactive: [1] 111 % of control | [2] 103 % of control | [3] 103 % of control

O=C1NCC2CCc3c(ccc4ccccc34)N12 (stereo not given)
inactive: [9] 100 % of control | [10] 94 % of control | [11] 93 % of control

CCOC(=N)Cc1ccccc1
inactive: dose: 12.5 mg/kg/injection, schedule: Q04DX002 (ip), vehicle: Klucel (hydroxypropylcellulose) (HPC) 100 % of control | dose: 25.0 mg/kg/injection, schedule: Q04DX002 (ip), vehicle: Klucel (hydroxypropylcellulose) (HPC) 103 % of control | dose: 50.0 mg/kg/injection, schedule: Q04DX002 (ip), vehicle: Klucel (hydroxypropylcellulose) (HPC) 106 % of control | [24] 110 % of control

CCN(CCCl)CCCNc1c2ccc(Cl)cc2nc2ccc(OC)nc12
inactive: dose: 1.5 mg/kg/injection, schedule: Q01DX009 (ip), vehicle: saline 119 % of control | [25] 91 % of control

Clc1ccc2nc(C(Cl)(Cl)Cl)[nH]c2c1
inactive: [12] 98 % of control | [13] 104 % of control | [14] 95 % of control

Nc1ccc(S(=O)(=O)CCCl)cc1
inactive: [24] 89 % of control | dose: 200.0 mg/kg/injection, schedule: Q04DX002 (ip), vehicle: Klucel (hydroxypropylcellulose) (HPC) 100 % of control | dose: 400.0 mg/kg/injection, schedule: Q04DX002 (ip), vehicle: Klucel (hydroxypropylcellulose) (HPC) 100 % of control

CCCC(OC(C)=O)C(Cl)(Cl)Cl (stereo not given)
inactive: [21] 103 % of control | [22] 107 % of control | [5] 97 % of control | [7] 97 % of control

CCOC(=O)C1(c2ccccc2)CCN(CCC(=O)c2ccc(F)cc2)CC1
inactive: [4] 98 % of control | [6] 95 % of control

O=C1C=CC(=O)N1C(=O)NC(I)NC(=O)N1C(=O)C=CC1=O
inactive: [15] 94 % of control | [16] 98 % of control | [17] 100 % of control

CCN(CC)CC(C)OC(=O)CCN1CC1 (stereo not given)
inactive: dose: 3.0 mg/kg/injection, schedule: Q01DX009 (ip), vehicle: saline 100 % of control | [25] 106 % of control | dose: 12.0 mg/kg/injection, schedule: Q01DX009 (ip), vehicle: saline 103 % of control | dose: 25.0 mg/kg/injection, schedule: Q01DX009 (ip), vehicle: saline 101 % of control | dose: 25.0 mg/kg/injection, schedule: Q04DX003 (ip), vehicle: saline 108 % of control | [18] 95 % of control | dose: 50.0 mg/kg/injection, schedule: Q04DX003 (ip), vehicle: saline 101 % of control | [19] 97 % of control and 111 % of control | [20] 103 % of control

CCOc1cccc(Cc2cn(Cc3cccc(NC(=O)c4ccccc4)c3)c(=O)[nH]c2=O)c1
inactive: dose: 100.0 mg/kg/injection, schedule: Q01DX001 (ip), vehicle: saline with Tween-80 93 % of control | dose: 200.0 mg/kg/injection, schedule: Q01DX001 (ip), vehicle: saline with Tween-80 96 % of control | dose: 400.0 mg/kg/injection, schedule: Q01DX001 (ip), vehicle: saline with Tween-80 95 % of control

CN(C)N=Nc1ccccc1C(F)(F)F
inactive: [21] 109 % of control | [22] 103 % of control and 107 % of control | [5] 104 % of control | [23] 107 % of control and 108 % of control | [7] 104 % of control | dose: 400.0 mg/kg/injection, schedule: Q01DX009 (ip), vehicle: Klucel (hydroxypropylcellulose) (HPC) 111 % of control and 114 % of control | [8] 109 % of control

O=[N+]([O-])c1cc(C(F)(F)C(F)(F)C(F)(F)c2ccc(O)c([N+](=O)[O-])c2)ccc1O
inactive: dose: 25.6 mg/kg/injection, schedule: Q04DX002 (ip), vehicle: saline with Tween-80 95 % of control | dose: 64.0 mg/kg/injection, schedule: Q04DX002 (ip), vehicle: saline with Tween-80 100 % of control | dose: 160.0 mg/kg/injection, schedule: Q04DX002 (ip), vehicle: saline with Tween-80 92 % of control
